Measured values reported in the supplement of paper PMC10307832.

Legend:
Assay in all cases: relative viability (nuclei count vs DMSO), 5 days (fraction); higher = more cells survive
Wnt-C59 + Bortezomib = compound: CC1=NC=CC(=C1)C2=CC=C(C=C2)CC(=O)NC3=CC=C(C=C3)C4=CN=CC=C4 [Wnt-C59] + CC(C)C[C@H](NC(=O)[C@H](Cc1ccccc1)NC(=O)c1cnccn1)B(O)O [Bortezomib] (partner 0.002 µM)
Method in brief: (§1)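 A single step with final 0.05% Triton X-100, 1% formaldehyde and 1 ug/ml Hoechst fixed the cells and stained nuclei 5 days after treatment. Lung cancer cell lines in 1536-well plates had been treated by pin tool the day after seeding with one drug alone or a fixed anchor-drug dose plus five library-drug doses (not always all listed) in √10 steps, and nuclei were counted on 4× images. Relative viability is the ratio of nuclei in treated wells to nuclei in vehicle wells, taken as the median of duplicate plates.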

Wnt-C59 + Pemetrexed = compound: CC1=NC=CC(=C1)C2=CC=C(C=C2)CC(=O)NC3=CC=C(C=C3)C4=CN=CC=C4 [Wnt-C59] + Nc1nc2[nH]cc(CCc3ccc(C(=O)N[C@@H](CCC(=O)O)C(=O)O)cc3)c2c(=O)[nH]1 [Pemetrexed] (partner 0.2 µM)
Method in brief: as §1

Lapatinib + Tozasertib = compound: CS(=O)(=O)CCNCc1ccc(-c2ccc3ncnc(Nc4ccc(OCc5cccc(F)c5)c(Cl)c4)c3c2)o1 [Lapatinib] + Cc1cc(Nc2cc(N3CCN(C)CC3)nc(Sc3ccc(NC(=O)C4CC4)cc3)n2)n[nH]1 [Tozasertib] (partner 0.1 µM)
Method in brief: as §1

Wnt-C59 + Navitoclax = compound: CC1=NC=CC(=C1)C2=CC=C(C=C2)CC(=O)NC3=CC=C(C=C3)C4=CN=CC=C4 [Wnt-C59] + CC1(C)CCC(c2ccc(Cl)cc2)=C(CN2CCN(c3ccc(C(=O)NS(=O)(=O)c4ccc(N[C@H](CCN5CCOCC5)CSc5ccccc5)c(S(=O)(=O)C(F)(F)F)c4)cc3)CC2)C1 [Navitoclax] (partner 0.5 µM)
Method in brief: as §1

Row | Cell Line | relative viability (Wnt-C59 + Bortezomib; first compound 0.001 µM) | relative viability (Wnt-C59 + Bortezomib; first compound 0.01 µM) | relative viability (Wnt-C59 + Bortezomib; first compound 0.03162 µM) | relative viability (Wnt-C59 + Bortezomib; first compound 0.1 µM) | relative viability (Wnt-C59 + Pemetrexed; first compound 0.001 µM) | relative viability (Wnt-C59 + Pemetrexed; first compound 0.01 µM) | relative viability (Wnt-C59 + Pemetrexed; first compound 0.03162 µM) | relative viability (Wnt-C59 + Pemetrexed; first compound 0.1 µM) | relative viability (Lapatinib + Tozasertib; first compound 0.02 µM) | relative viability (Lapatinib + Tozasertib; first compound 0.06325 µM) | relative viability (Lapatinib + Tozasertib; first compound 0.2 µM) | relative viability (Lapatinib + Tozasertib; first compound 0.6325 µM) | relative viability (Lapatinib + Tozasertib; first compound 2 µM) | relative viability (Wnt-C59 + Navitoclax; first compound 0.001 µM) | relative viability (Wnt-C59 + Navitoclax; first compound 0.01 µM) | relative viability (Wnt-C59 + Navitoclax; first compound 0.03162 µM) | relative viability (Wnt-C59 + Navitoclax; first compound 0.1 µM)
1 | NCI-H1666 | 0.797 | 0.749 | 0.807 | 0.89 | 0.865 | 0.799 | 0.828 | 0.869 | 0.598 | 0.577 | 0.573 | 0.453 | 0.36 | 1.14 | 0.909 | 1.01 | 0.863
2 | NCI-H1734 | 0.906 | 0.778 | 0.992 | 0.914 | 0.414 | 0.389 | 0.423 | 0.394 | 0.272 | 0.276 | 0.274 | 0.242 | 0.232 | 0.856 | 0.811 | 0.86 | 0.838
3 | NCI-H1755 | 0.974 | 0.88 | 0.929 | 0.948 | 0.421 | 0.407 | 0.419 | 0.402 | 0.549 | 0.583 | 0.559 | 0.483 | 0.486 | 0.983 | 0.977 | 1.01 | 1.02
4 | NCI-H1915 | 0.943 | 0.951 | 1.05 | 0.934 | 0.502 | 0.464 | 0.517 | 0.505 |  | 0.367 | 0.437 | 0.383 | 0.319 | 0.822 | 0.8 | 0.77 | 0.8
5 | NCI-H1975 | 0.297 | 0.372 | 0.461 | 0.37 | 0.321 | 0.307 | 0.288 | 0.311 | 0.583 | 0.516 | 0.25 | 0.178 | 0.167 | 1.25 | 1.11 | 1.06 | 1.2
6 | NCI-H1993 | 1.14 | 1.12 | 1.21 | 1.2 | 0.67 | 0.591 | 0.609 | 0.625 | 0.518 |  | 0.574 | 0.518 | 0.486 | 1.04 | 0.82 | 1.09 | 0.972
7 | NCI-H2009 | 1.07 | 1.06 | 1.03 | 0.993 | 0.988 | 1.11 | 1.07 | 1.04 | 0.732 | 0.633 | 0.78 | 0.714 | 0.492 | 1.13 | 1.23 | 1.14 | 1.14
8 | NCI-H2023 | 0.979 | 1.1 | 1.05 | 0.821 | 0.238 | 0.258 | 0.221 | 0.24 | 0.249 |  | 0.191 | 0.204 | 0.137 | 1 | 0.993 | 1.03 | 0.944
9 | NCI-H2085 | 1.16 | 0.898 | 1.07 | 1.16 | 0.837 | 0.887 | 0.963 | 0.888 |  | 0.748 | 0.73 | 0.532 | 0.337 | 1.28 | 1.15 | 1.23 | 1.05
10 | NCI-H2087 | 0.68 | 0.715 | 0.789 | 0.753 | 0.629 | 0.72 | 0.697 | 0.709 |  | 0.233 | 0.267 | 0.186 | 0.215 | 1.03 | 0.981 | 1.01 | 0.93
11 | NCI-H2126 | 1.12 | 1.09 | 1.11 | 1.11 | 0.688 | 0.655 | 0.642 | 0.649 |  | 0.664 | 0.844 | 0.712 | 0.547 | 0.865 | 0.87 | 0.866 | 0.872
12 | NCI-H2228 | 1.07 | 0.746 | 1.07 | 0.855 | 0.306 | 0.334 | 0.337 | 0.328 | 0.25 | 0.258 | 0.145 | 0.205 | 0.135 | 0.957 | 0.87 | 0.68 | 1.05
13 | NCI-H2347 | 0.808 | 1.12 | 0.922 | 1.1 | 0.46 | 0.489 | 0.451 | 0.434 |  | 0.57 | 0.52 | 0.439 | 0.399 | 0.897 | 0.846 | 1 | 0.748
14 | NCI-H2405 | 0.978 | 0.962 | 0.944 | 0.95 | 1.02 | 1.01 | 0.989 | 1.08 | 0.665 | 0.694 | 0.807 | 0.759 | 0.561 | 0.946 |  | 0.702 | 0.867
15 | NCI-H3122 | 0.998 | 0.972 | 1.04 | 0.958 | 0.219 | 0.216 | 0.197 | 0.195 |  | 0.366 | 0.479 | 0.341 | 0.349 | 1.02 | 0.976 | 0.958 | 0.98
16 | PC-3 [JPC-3] | 0.874 | 0.782 | 0.881 | 0.856 | 1.11 | 1.24 | 1.04 | 1.47 | 0.876 | 0.83 | 0.909 | 0.803 | 0.506 | 0.868 | 0.815 | 0.933 | 0.809
17 | PC-14 | 0.949 | 0.9 | 0.903 | 0.733 | 0.131 | 0.138 | 0.109 | 0.143 |  | 0.604 | 0.638 | 0.551 | 0.356 | 1 | 1.15 | 1.06 | 1.02
18 | RERF-LC-KJ | 1.07 | 1.05 | 1.22 | 1.21 | 0.483 | 0.497 | 0.45 | 0.495 | 0.525 | 0.425 | 0.436 | 0.413 | 0.337 | 0.899 | 0.908 | 1.01 | 1.31
19 | SK-LU-1 | 1.15 | 1.23 | 1.28 | 1.45 | 0.969 | 1 | 1 | 0.973 | 0.32 | 0.306 | 0.3 | 0.29 | 0.235 | 0.893 | 0.832 | 1.02 | 0.893
